In ChEMBL document CHEMBL1137749, “Antifungal unsaturated cyclic Mannich ketones and amino alcohols: study of mechanism of action” (2009):
≈ marks a conversion by molar mass, not a printed value. Calls of active or inactive are those of the source. No cut-off for these calls is given here.

What was measured:
Candida albicans [1] = experiment: Antifungal activity against Candida albicans ATCC 90028 assessed as number of fungal cells with pseudohyphae out of 100 cells at 0.5 time MIC after 0 to 6 hrs by light microscopy; format: functional
Candida albicans [2] = experiment: Antifungal activity against Candida albicans ATCC 90028 assessed as number of fungal cells without pseudohyphae out of 100 cells at 0.5 time MIC after 0 to 6 hrs by light microscopy; format: functional
Candida albicans [3] = experiment: Antifungal activity against Candida albicans ATCC 90028 after 48 hrs by macro tube dilution method; format: functional; details: ATCC 90028, 48 h
Nakaseomyces glabratus = experiment: Antifungal activity against Candida glabrata ATCC 3916 after 48 hrs by macro tube dilution method; format: functional; details: ATCC 3916, 48 h
Pichia kudriavzevii = experiment: Antifungal activity against Candida krusei ATCC 30068 after 48 hrs by macro tube dilution method; format: functional; details: ATCC 30068, 48 h
Candida parapsilosis = experiment: Antifungal activity against Candida parapsilosis ATCC 22019 after 48 hrs by macro tube dilution method; format: functional; details: Lodderomyces parapsilosis, ATCC 22019, 48 h
Saccharomyces cerevisiae = experiment: Antifungal activity against Saccharomyces cerevisiae after 48 hrs by macro tube dilution method; format: functional
Aspergillus sp. = experiment: Antifungal activity against Aspergillus sp. after 48 hrs by macro tube dilution method; format: functional
Candida albicans [4] = experiment: Antifungal activity against Candida albicans ATCC 90028 assessed as inhibition of fungal ergosterol synthesis at 0.5 times MIC after 16 hrs by UV spectrophotometry; format: functional, organism-based
Candida albicans [5] = experiment: Antifungal activity against Candida albicans ATCC 90028 assessed as inhibition of fungal ergosterol synthesis at 1.56 ug/mL after 16 hrs by UV spectrophotometry; format: functional, organism-based
Candida albicans [6] = experiment: Inhibition of chitin synthase in Candida albicans ATCC 90028 at 1.5 times MIC by liquid scintillation analyzer relative to nikkomycin
Rattus norvegicus = species: Rattus norvegicus; experiment: Inhibition of lactate dehydrogenase in Wistar rat kidney at 1.5 times MIC relative to control
Candida albicans [7] = experiment: Antifungal activity against Candida albicans ATCC 90028 assessed as increase in 104 kDa fungal protein at 0.5 time MIC after 1 hr by electrophoresis-based microchip technology; format: functional, organism-based
Candida albicans [8] = experiment: Antifungal activity against Candida albicans ATCC 90028 assessed as increase in 104 kDa fungal protein at 2 times MIC after 1 hr by electrophoresis-based microchip technology; format: functional, organism-based
Candida albicans [9] = experiment: Antifungal activity against Candida albicans ATCC 90028 assessed as increase in 117 kDa fungal protein at 0.5 time MIC after 1 hr by electrophoresis-based microchip technology; format: functional, organism-based
Candida albicans [10] = experiment: Antifungal activity against Candida albicans ATCC 90028 assessed as increase in 117 kDa fungal protein at 2 times MIC after 1 hr by electrophoresis-based microchip technology; format: functional, organism-based
Candida albicans [11] = experiment: Antifungal activity against Candida albicans ATCC 90028 assessed as increase in 124 kDa fungal protein at 0.5 time MIC after 1 hr by electrophoresis-based microchip technology; format: functional, organism-based
Candida albicans [12] = experiment: Antifungal activity against Candida albicans ATCC 90028 assessed as increase in 124 kDa fungal protein at 2 times MIC after 1 hr by electrophoresis-based microchip technology; format: functional, organism-based
Candida albicans [13] = experiment: Antifungal activity against Candida albicans ATCC 90028 assessed as increase in 147 kDa fungal protein at 0.5 time MIC after 1 hr by electrophoresis-based microchip technology; format: functional, organism-based
Candida albicans [14] = experiment: Antifungal activity against Candida albicans ATCC 90028 assessed as increase in 147 kDa fungal protein at 2 times MIC after 1 hr by electrophoresis-based microchip technology; format: functional, organism-based
Candida albicans [15] = experiment: Antifungal activity against Candida albicans ATCC 90028 assessed as inhibition of fungal ergosterol synthesis at 25 ug/mL after 16 hrs by UV spectrophotometry; format: functional, organism-based
Candida albicans [16] = experiment: Antifungal activity against Candida albicans ATCC 90028 assessed as changes in fungal protein expression at 0.5 time MIC after 1 hr by electrophoresis-based microchip technology; format: functional, organism-based
Candida albicans [17] = experiment: Antifungal activity against Candida albicans ATCC 90028 assessed as changes in fungal protein expression at 2 times MIC after 1 hr by electrophoresis-based microchip technology; format: functional, organism-based

SMILES: C[C@@H]1[C@H](O)[C@@H](C)/C=C/C=C/C=C/C=C/C=C/C=C/C=C/[C@H](O[C@@H]2O[C@H](C)[C@@H](O)[C@H](N)[C@@H]2O)C[C@@H]2O[C@](O)(C[C@@H](O)C[C@@H](O)[C@H](O)CC[C@@H](O)C[C@@H](O)CC(=O)O[C@H]1C)C[C@H](O)[C@H]2C(=O)O [AMPHOTERICIN B]
- Activity (Candida albicans [1]): 18
- Activity (Candida albicans [2]): 77

SMILES: COc1ccccc1/C=C1\CCC(CN2CCOCC2)C1=O (stereo unspecified)
- MIC (Candida albicans [3]): 3.12 µg/mL (≈ 10.4 µM)
- MIC (Nakaseomyces glabratus): 12.5 µg/mL (≈ 41.5 µM)
- MIC (Pichia kudriavzevii): 3.12 µg/mL (≈ 10.4 µM)
- MIC (Candida parapsilosis): 12.5 µg/mL (≈ 41.5 µM)
- MIC (Saccharomyces cerevisiae): 6.25 µg/mL (≈ 20.7 µM)
- MIC (Aspergillus sp.): > 200 µg/mL
- Activity (Candida albicans [4]): inactive
- Activity (Candida albicans [1]): 9
- Activity (Candida albicans [2]): 81

SMILES: OC(Cn1cncn1)(Cn1cncn1)c1ccc(F)cc1F
- Activity (Candida albicans [5]): inactive

SMILES: COc1cccc(/C=C2\CCC(CN3CCOCC3)C2=O)c1 (stereo unspecified)
- MIC (Candida albicans [3]): 3.12 µg/mL (≈ 10.4 µM)
- MIC (Nakaseomyces glabratus): 3.12 µg/mL (≈ 10.4 µM)
- MIC (Pichia kudriavzevii): 3.12 µg/mL (≈ 10.4 µM)
- MIC (Candida parapsilosis): 3.12 µg/mL (≈ 10.4 µM)
- MIC (Saccharomyces cerevisiae): 1.56 µg/mL (≈ 5.18 µM)
- MIC (Aspergillus sp.): 50 µg/mL (≈ 166 µM)
- Activity (Candida albicans [5]): inactive
- inhibition (Candida albicans [6]): inactive
- Activity (Rattus norvegicus): inactive

SMILES: COc1ccc(/C=C2\CC[C@@H](CN3CCCCC3)[C@@H]2O)cc1 (relative stereo)
- MIC (Candida albicans [3]): 100 µg/mL (≈ 332 µM)
- MIC (Nakaseomyces glabratus): > 200 µg/mL
- MIC (Pichia kudriavzevii): 100 µg/mL (≈ 332 µM)
- MIC (Candida parapsilosis): > 200 µg/mL
- MIC (Saccharomyces cerevisiae): 100 µg/mL (≈ 332 µM)
- MIC (Aspergillus sp.): 200 µg/mL (≈ 664 µM)
- Activity (Candida albicans [7]): Active
- Activity (Candida albicans [8]): inactive
- Activity (Candida albicans [9]): Active
- Activity (Candida albicans [10]): Active
- Activity (Candida albicans [11]): Active
- Activity (Candida albicans [12]): Active
- Activity (Candida albicans [13]): inactive
- Activity (Candida albicans [14]): inactive

SMILES: O=C1/C(=C/c2ccccc2)CCCCC1CN1CCCCC1 (stereo unspecified)
- MIC (Candida albicans [3]): 50 µg/mL (≈ 168 µM)
- MIC (Nakaseomyces glabratus): 100 µg/mL (≈ 336 µM)
- MIC (Pichia kudriavzevii): 100 µg/mL (≈ 336 µM)
- MIC (Candida parapsilosis): 200 µg/mL (≈ 672 µM)
- MIC (Saccharomyces cerevisiae): 100 µg/mL (≈ 336 µM)
- MIC (Aspergillus sp.): 100 µg/mL (≈ 336 µM)
- Activity (Candida albicans [15]): inactive
- Activity (Candida albicans [1]): 47
- Activity (Candida albicans [2]): 39
- Activity (Candida albicans [16]): inactive
- Activity (Candida albicans [17]): inactive
- inhibition (Candida albicans [6]): 24%
- inhibition (Rattus norvegicus): inactive

SMILES: COc1ccc(/C=C2\CCC(CN3CCCCC3)C2=O)cc1 (stereo unspecified)
- MIC (Candida albicans [3]): 12.5 µg/mL (≈ 41.7 µM)
- MIC (Nakaseomyces glabratus): 6.25 µg/mL (≈ 20.9 µM)
- MIC (Pichia kudriavzevii): 12.5 µg/mL (≈ 41.7 µM)
- MIC (Candida parapsilosis): 6.25 µg/mL (≈ 20.9 µM)
- MIC (Saccharomyces cerevisiae): 3.12 µg/mL (≈ 10.4 µM)
- MIC (Aspergillus sp.): 100 µg/mL (≈ 334 µM)
- Activity (Candida albicans [7]): Active
- Activity (Candida albicans [8]): Active
- Activity (Candida albicans [9]): Active
- Activity (Candida albicans [10]): Active
- Activity (Candida albicans [11]): Active
- Activity (Candida albicans [12]): Active
- Activity (Candida albicans [13]): Active
- Activity (Candida albicans [14]): Active

SMILES: O=C1/C(=C/c2ccccc2)CCC1CN1CCc2ccccc2C1 (stereo unspecified)
- MIC (Candida albicans [3]): 12.5 µg/mL (≈ 39.4 µM)
- MIC (Nakaseomyces glabratus): 6.25 µg/mL (≈ 19.7 µM)
- MIC (Pichia kudriavzevii): 12.5 µg/mL (≈ 39.4 µM)
- MIC (Candida parapsilosis): 12.5 µg/mL (≈ 39.4 µM)
- MIC (Saccharomyces cerevisiae): 1.56 µg/mL (≈ 4.91 µM)
- MIC (Aspergillus sp.): 200 µg/mL (≈ 630 µM)
- Activity (Candida albicans [7]): Active
- Activity (Candida albicans [8]): Active
- Activity (Candida albicans [9]): Active
- Activity (Candida albicans [10]): Active
- Activity (Candida albicans [11]): Active
- Activity (Candida albicans [12]): Active
- Activity (Candida albicans [13]): Active
- Activity (Candida albicans [14]): Active
